Measurements reported in ChEMBL document CHEMBL4351021, “Design, synthesis and biological evaluation of novel FFA1/GPR40 agonists: New breakthrough in an old scaffold” (Eur J Med Chem, 2019).
Calls of active or inactive are those of the source. The calls are words filed in the database; no cut-off is given here.

Legend:
[1] = target: T1, Free fatty acid receptor 1 (Homo sapiens, UniProt O14842); test: Agonist activity at FFA1 receptor (unknown origin) stably expressed in CHO cells assessed as increase in calcium flux by Fluo4-AM based FLIPR assay; type: functional, cell-based
[2] = Lipophilicity, logD of compound in 1-octanol and PBS mixture in pH 7.4 at 100 uM incubated for 24 under shaking condition by HPLC analysis; type: physicochemical; settings: 1-octanol/PBS
Mus musculus [3] = test: Antidiabetic activity in ICR mouse assessed as reduction in blood glucose level at 20 mg/kg, po pretreated for 30 mins followed by glucose challenge and measured up to 120 mins by OGTT; type: functional, organism-based
[4] = Clearance in Sprague-Dawley rat at 10 mg/kg, po measured for […] by LC-MS/MS analysis; type: ADME, organism-based; settings: in vivo
[5] = Cmax in Sprague-Dawley rat at 10 mg/kg, po measured for […] by LC-MS/MS analysis; type: ADME, organism-based; parameters: dose 10 mg/kg, route oral; settings: in vivo
[6] = AUC (0 to 24 hrs) in Sprague-Dawley rat at 10 mg/kg, po measured for […] by LC-MS/MS analysis; type: ADME, organism-based; parameters: time < 24 hr, dose 10 mg/kg, route oral; settings: in vivo; for AUC: 24 h
[7] = Half life in Sprague-Dawley rat at 10 mg/kg, po measured for […] by LC-MS/MS analysis; type: ADME, organism-based; settings: in vivo
Mus musculus [8] = test: Antidiabetic activity in ICR mouse assessed as glucose-stimulated change in GLP-1 secretion at 20 mg/kg, po pretreated for 0.5 hrs followed by glucose challenge and measured after 5 mins by ELISA; type: functional, organism-based
Mus musculus [9] = test: Antidiabetic activity in ICR mouse assessed as increase in GLP-1 secretion at 20 mg/kg, po pretreated with DPP4 inhibitor linagliptin for 1 hr followed by compound addition and measured after 4 hrs by ELISA; type: functional, organism-based
Mus musculus [10] = test: Antidiabetic activity in HFD fed/STZ-treated C57BL/6 mouse assessed as decrease in blood glucose at 20 mg/kg, po pretreated for 30 mins followed by glucose challenge and measured after up to 120 mins by OGTT; type: functional, organism-based
Hepatocyte [11] = test: Hepatotoxicity in sandwich-cultured Sprague-Dawley rat hepatocytes assessed as decrease in accumulation of d8-TCA at 25 uM incubated for 15 mins followed by d8-TCA addition and measured after 15 mins by LC-MS/MS analysis; type: toxicity, cell-based; settings: 0.25 h
Hepatocyte [12] = test: Hepatotoxicity in sandwich-cultured Sprague-Dawley rat hepatocytes assessed as inhibition of hepatobiliary transport by measuring biliary excretion index at 25 uM incubated for 15 mins followed by d8-TCA addition and measured after 15 mins by LC-MS/MS analysis; type: toxicity, cell-based; settings: 0.25 h
Rattus norvegicus [13] = test: Antidiabetic activity in Sprague-Dawley rat assessed as suppression in blood glucose excursion at 10 mg/kg, po pretreated for 1 hr followed by glucose challenge and measured up to 120 mins by OGTT; type: functional, organism-based
Rattus norvegicus [14] = test: Antidiabetic activity in Sprague-Dawley rat assessed as increase in plasma insulin level at 10 mg/kg, po administrated and measured up to 120 mins by ELISA; type: functional, organism-based
Rattus norvegicus [15] = test: Antidiabetic activity in Sprague-Dawley rat assessed as change in blood glucose level in fasting state at 10 mg/kg, po pretreated for 1 hr followed by glucose challenge and measured up to 120 mins by OGTT; type: functional, organism-based
[16] = Acute toxicity in ICR mouse assessed as change in ALT level up to 500 mg/kg, po daily for 7 days; type: organism-based; settings: in vivo, 168 h
[17] = Acute toxicity in ICR mouse assessed as change in AST level up to 500 mg/kg, po daily for 7 days; type: organism-based; settings: in vivo, 168 h
[18] = Acute toxicity in ICR mouse assessed as change in liver morphology at 5 to 500 mg/kg, po daily for 7 days by H and E staining based histopathological analysis; type: organism-based; settings: in vivo, 168 h
[19] = Acute toxicity in ICR mouse assessed as induction of side effects at 5 to 500 mg/kg, po daily for 7 days; type: organism-based; settings: in vivo, 168 h
Rattus norvegicus [20] = test: Antidiabetic activity in Sprague-Dawley rat assessed as increase in plasma insulin level at 10 mg/kg, po pretreated for 1 hr followed by glucose challenge and measured at 0 mins by ELISA; type: functional, organism-based
Rattus norvegicus [21] = test: Antidiabetic activity in Sprague-Dawley rat assessed as change in blood glucose level at 10 mg/kg, po pretreated for 1 hr followed by glucose challenge by OGTT; type: functional, organism-based; settings: TDE = time-dependent effect
Rattus norvegicus [22] = test: Antidiabetic activity in Sprague-Dawley rat assessed as change plasma in insulin level at 10 mg/kg, po pretreated for 1 hr followed by glucose challenge by ELISA; type: functional, organism-based; settings: TDE = time-dependent effect
[23] = target: T1, Free fatty acid receptor 1; test: Potency index, ratio of EC50 for 2-(4-(([…]3-yl)methoxy)-2-fluorophenoxy)acetic acid to EC50 for test compound for Agonist activity at FFA1 receptor (unknown origin) stably expressed in CHO cells assessed as increase in calcium flux by Fluo4-AM based FLIPR assay; type: functional, cell-based
Mus musculus [24] = test: Antidiabetic activity in ICR mouse assessed as flattening of glucose curve after 1 hr at 20 mg/kg, po pretreated for 30 mins followed by glucose challenge and measured up to 120 mins by OGTT; type: functional, organism-based

T1 sequence (O14842 whole entry): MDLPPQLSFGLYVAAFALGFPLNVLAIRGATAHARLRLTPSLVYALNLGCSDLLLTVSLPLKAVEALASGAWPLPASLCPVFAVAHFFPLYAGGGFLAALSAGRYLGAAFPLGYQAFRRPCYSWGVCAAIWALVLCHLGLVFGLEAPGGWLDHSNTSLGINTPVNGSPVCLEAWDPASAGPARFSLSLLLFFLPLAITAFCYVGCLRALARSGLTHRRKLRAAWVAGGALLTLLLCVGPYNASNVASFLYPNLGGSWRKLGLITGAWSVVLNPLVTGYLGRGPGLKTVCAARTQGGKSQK

## Cc1cc(O)ccc1-c1cccc(CNc2ccc(OCC(=O)O)c(F)c2)c1
[1]
  EC50: 69.6 nM
[2]
  logD at 100 µM: 1.85

## CO/N=C(\COc1ccc(CNc2ccc(OCC(=O)O)c(F)c2)cc1)c1ccccc1
[1]
  EC50: 398 nM

## CCOc1cc(C)c(-c2cccc(CNc3ccc(OCC(=O)O)cc3)c2)c(C)c1
[1]
  EC50: 197 nM

## N#Cc1ccccc1-c1cccc(CNc2ccc(OCC(=O)O)c(F)c2)c1
[1]
  EC50: 729 nM

## COc1ccccc1-c1cccc(CNc2ccc(OCC(=O)O)c(F)c2)c1
[1]
  EC50: 536 nM

## O=C(O)COc1ccc(NCc2ccc(Cl)c(-c3ccccc3)c2)cc1F
[1]
  EC50: 51.7 nM
[2]
  logD at 100 µM: 2.74

## Cc1cc(OCCCS(C)(=O)=O)cc(C)c1-c1cccc(COc2ccc3c(c2)OC[C@H]3CC(=O)O)c1
Mus musculus [3]
  Activity: Active
[4]
  CL: 0.4177 mL/min/kg
[5]
  Cmax: 87.4 µg/mL
[6]
  AUC: 1064.23 µg·h/mL
[7]
  half-life: 4.32 h
Mus musculus [8]
  Activity: inactive
Mus musculus [9]
  Activity: inactive
Mus musculus [10]
  Activity: Active
Hepatocyte [11]
  Activity: Toxic

## CCCOc1cc(C)c(-c2cccc(CNc3ccc(OCC(=O)O)c(F)c3)c2)c(C)c1
[1]
  EC50: 38.7 nM
[2]
  logD at 100 µM: 3.59

## O=C(O)COc1ccc(NCc2cccc(-c3ccccc3F)c2)cc1F
[1]
  EC50: 36.5 nM
[2]
  logD at 100 µM: 2.36

## CCOc1cc(C)c(-c2cccc(COc3ccc(OCC(=O)O)c(F)c3)c2)c(C)c1
[1]
  EC50: 69.3 nM
[2]
  logD at 100 µM: 3.61

## COCCOc1ccc(-c2cccc(CNc3ccc(OCC(=O)O)c(F)c3)c2)c(C)c1
[1]
  EC50: 41.9 nM
[2]
  logD at 100 µM: 2.23

## Cc1cc(OCCCS(C)(=O)=O)cc(C)c1-c1cccc(CNc2ccc(OCC(=O)O)c(F)c2)c1
[1]
  EC50: 59.8 nM
[2]
  logD at 100 µM: 1.73

## O=C(O)COc1ccc(NCc2cccc(-c3ccccc3Cl)c2)cc1F
[1]
  EC50: 19.3 nM
[2]
  logD at 100 µM: 2.71
Mus musculus [3]
  Activity: Active

## Cc1cc(OCCCS(C)(=O)=O)ccc1-c1cccc(CNc2ccc(OCC(=O)O)c(F)c2)c1
[1]
  EC50: 45.6 nM
[2]
  logD at 100 µM: 1.59

## Cc1cc(OCCO)ccc1-c1cccc(CNc2ccc(OCC(=O)O)c(F)c2)c1
[1]
  EC50: 36.1 nM
[2]
  logD at 100 µM: 1.65
Hepatocyte [12]
  Activity_index: 14.3%
Hepatocyte [11]
  Activity: Toxic

## CCOc1ccc(-c2cccc(CNc3ccc(OCC(=O)O)c(F)c3)c2)c(C)c1
[1]
  EC50: 11.6 nM
[2]
  logD at 100 µM: 2.83
Mus musculus [3]
  Activity: Active
Hepatocyte [12]
  Activity_index: 19.3%
Hepatocyte [11]
  Activity: Toxic

## O=C(O)COc1ccc(NCc2cccc(-c3ccccc3)c2)cc1F
[1]
  EC50: 58.5 nM
[2]
  logD at 100 µM: 2.25

## CCCOc1ccc(-c2cccc(CNc3ccc(OCC(=O)O)c(F)c3)c2)c(C)c1
[1]
  EC50: 41.3 nM
[2]
  logD at 100 µM: 3.37

## COCCOc1cc(C)c(-c2cccc(CNc3ccc(OCC(=O)O)c(F)c3)c2)c(C)c1
[1]
  EC50: 51.6 nM
[2]
  logD at 100 µM: 2.47

## O=C(O)COc1ccc(NCc2cccc(-c3ccccc3C(F)(F)F)c2)cc1F
[1]
  EC50: 15.7 nM
[2]
  logD at 100 µM: 3.13
Mus musculus [3]
  Activity: Active
Hepatocyte [12]
  Activity_index: 29.6%
[4]
  CL: 0.124 mL/min/kg
[5]
  Cmax: 322 µg/mL
[6]
  AUC: 3909.33 µg·h/mL
[7]
  half-life: 4.84 h
Rattus norvegicus [13]
  Activity: Active
Rattus norvegicus [14]
  Activity: inactive
Rattus norvegicus [15]
  Activity: inactive
Mus musculus [8]
  Activity: inactive
Mus musculus [9]
  Activity: Active
Mus musculus [10]
  Activity: Active
[16]
  Activity: Non-Toxic
[17]
  Activity: Non-Toxic
[18]
  Activity: Non-Toxic
[19]
  Activity: Non-Toxic
Hepatocyte [11]
  Activity: Toxic
Rattus norvegicus [20]
  Activity: Active
Rattus norvegicus [21]
  Activity: Tde
Rattus norvegicus [22]
  Activity: Tde

## Cc1noc(C)c1-c1cccc(CNc2ccc(OCC(=O)O)c(F)c2)c1
[1]
  EC50: 225 nM

## CCOc1cc(C)c(-c2cccc(CNc3ccc(OCC(=O)O)c(F)c3)c2)c(C)c1
[1]
  EC50: 24.2 nM
[2]
  logD at 100 µM: 3.04
Mus musculus [3]
  Activity: Active
[23]
  Ratio EC50: 3

## COc1ccc(Cl)cc1C(=O)NCCc1ccc(S(=O)(=O)NC(=O)NC2CCCCC2)cc1
Rattus norvegicus [15]
  Activity: Active

## Cc1ccc(-c2cccc(CNc3ccc(OCC(=O)O)c(F)c3)c2)c(Cl)c1
[1]
  EC50: 22.5 nM
[2]
  logD at 100 µM: 3.24

## CC(C)c1ccccc1-c1cccc(CNc2ccc(OCC(=O)O)c(F)c2)c1
[1]
  EC50: 86.2 nM
[2]
  logD at 100 µM: 3.45

## Cc1ccccc1-c1cccc(CNc2ccc(OCC(=O)O)c(F)c2)c1
Mus musculus [24]
  Activity: Active
[2]
  logD at 100 µM: 2.41
Mus musculus [3]
  Activity: Active
Hepatocyte [12]
  Activity_index: 12.3%
[4]; Sprague-Dawley
  CL/F: 0.109 mL/min/kg
[5]
  Cmax: 187 µg/mL
[6]; Sprague-Dawley
  AUC(0-t) at 24 h: 2870 µg·h/mL
[7]
  half-life: 5.42 h
Hepatocyte [11]
  Activity: Toxic

## CCOc1cc(C)c(-c2cccc(COc3ccc(NCC(=O)O)c(F)c3)c2)c(C)c1
[1]
  EC50: > 1000 nM
